What all share (format): cell-based
Assay [1] relates to human prostate cancer cell line (PC-3). Put plainly: MTT cytotoxicity assay, prostate cancer cell line. The conditions noted are these: for EC50: Homo sapiens, read-out: EC50/μM Prostate PC-3. As for the experimental part: (§1) The compounds include those whose preparations are described above and compounds made by preparative methods corresponding to the methods described above.
(§2) Compounds were diluted over a range of concentrations and added to cells over 1 to 3 days. The cytotoxity was determined using a MTT assay at the end of each experiment.
A general note: Tetrazolium assays rely on reduction of a dye to a coloured formazan, in cell work by metabolically active cells.

Assay [2] relates to human breast cancer cell line (MDA MB 231). Put plainly: MTT cytotoxicity assay, breast cancer cell line. The conditions noted are these: for EC50: Homo sapiens, MDA-MB-231, read-out: EC50/μM Breast MDA MB231. The procedure: as §1, §2
The test system of assay [3] is human colon cancer cell line (HT115). Put plainly: MTT cytotoxicity assay, colon cancer cell line. The procedure: as §1, §2
Setting [4] is: Homo sapiens, HT115, read-out: EC50/μM Colon HT115, MTT assay, compounds added to cells over 1 to 3 days.

Where two headings read alike, the source gives them in different places.

As for `CC(C)(NP(=O)(OC[C@H]1O[C@@H](n2cc(/C=C/Br)c(=O)[nH]c2=O)CC1O)Oc1ccc([N+](=O)[O-])cc1)C(=O)OCc1ccccc1` (stereo partly drawn) [Example 47, (E)-5-(2-bromovinyl)-2′-deoxyuridine-5′-[4-nitrophenyl-(benzoxy-α,α-dimethylglycinyl)]-phosphate], the EC50 is 27.2 µM in assay [1], 4.5 µM in assay [2] and 16.7 µM in assay [3] (setting [4]).

`COC(=O)[C@H](C)NP(=O)(OC[C@H]1O[C@@H](n2cc(/C=C/Br)c(=O)[nH]c2=O)CC1O)Oc1ccc(C(F)(F)F)cc1` (stereo partly drawn) [Example 15, (E)-5-(2-bromovinyl)-2′-deoxyuridine-5′-[para-(trifluoromethyl)-phenyl-(methoxy-L-alaninyl)]-phosphate]: the EC50 in assay [1] was found to be 15 µM; in assay [2], 47 µM; in assay [3] (setting [4]), 79.2 µM.

Take `COC(=O)[C@H](CC(C)C)NP(=O)(OC[C@H]1O[C@@H](n2cc(/C=C/Br)c(=O)[nH]c2=O)CC1O)Oc1ccccc1` (stereo partly drawn) [Example 35, (E)-5-(2-Bromovinyl)-2′-deoxyuridine-5′-[phenyl-(methoxy-L-leucinyl)]-phosphate]: the results for the EC50 in assay [1], in assay [2] and in assay [3] (setting [4]) were 75.7 µM, 18.5 µM and 7.7 µM, respectively.

With `COC(=O)C(C)(C)NP(=O)(OC[C@H]1O[C@@H](n2cc(/C=C/Br)c(=O)[nH]c2=O)CC1O)Oc1ccccc1` (stereo partly drawn) [Example 26, (E)-5-(2-bromovinyl)2′-deoxyuridine-5′-[phenyl-(methoxy-α,α-dimethylglycinyl)]-phosphate], the values for the EC50 in assay [1], in assay [2] and in assay [3] (setting [4]) were 1.5 µM, 41.1 µM and 77.9 µM, respectively.

For the compound `COC(=O)C1(NP(=O)(OC[C@H]2O[C@@H](n3cc(/C=C/Br)c(=O)[nH]c3=O)CC2O)Oc2ccc(F)cc2)CCCC1` (stereo partly drawn) [Example 22, (E)-5-(2-Bromovinyl)-2′-deoxyuridine-5′-[para-fluorophenyl-(methoxy-α,α-cycloleucinyl)]-phosphate], the results for the EC50 in assay [1], in assay [2] and in assay [3] (setting [4]) were 51 µM, 57 µM and 59.7 µM, respectively.

`C[C@H](NP(=O)(OC[C@H]1O[C@@H](n2cc(/C=C/Br)c(=O)[nH]c2=O)CC1O)Oc1ccc(C(F)(F)F)cc1)C(=O)OCc1ccccc1` (stereo partly drawn) [Example 4, (E)-5-(2-Bromovinyl)-2′-deoxyuridine-5′-[para-trifluorophenyl-(benzoxy-L-alaninyl)]-phosphate]: the EC50 in assay [1] worked out at 9.3 µM; in assay [2], 31 µM; in assay [3] (setting [4]) it was 7.4 µM.

As for `COC(=O)[C@H](C)NP(=O)(OC[C@H]1O[C@@H](n2cc(/C=C/Br)c(=O)[nH]c2=O)CC1O)Oc1ccc([N+](=O)[O-])cc1` (stereo partly drawn) [Example 10, (E)-5-(2-Bromovinyl)-2 ′-deoxyuridine-5′-[para-nitrophenyl-(methoxy-L-alaninyl)]-phosphate], the values for the EC50 in assay [1], in assay [2] and in assay [3] (setting [4]) were 10.4 µM, 105 µM and 96.7 µM, respectively.

As for `CC(C)C[C@H](NP(=O)(OC[C@H]1O[C@@H](n2cc(/C=C/Br)c(=O)[nH]c2=O)CC1O)Oc1ccc(Cl)cc1)C(=O)OCc1ccccc1` (stereo partly drawn) [Example 39, (E)-5-(2-Bromovinyl)-2′-deoxyuridine-5′-[para-chlorophenyl-(benzoxy-L-leucinyl)]-phosphate], the EC50 in assay [1] came to 193 µM; in assay [2], 4.3 µM; in assay [3] (setting [4]), 288 µM.

Regarding `O=C(OCc1ccccc1)C1(NP(=O)(OC[C@H]2O[C@@H](n3cc(/C=C/Br)c(=O)[nH]c3=O)CC2O)Oc2ccc(Cl)cc2)CCCC1` (stereo partly drawn) [Example 34, (E)-5-(2-Bromovinyl)-2′-deoxyuridine-5′-[para-chlorophenyl-(benzoxy-α,α-cycloleucinyl)]-phosphate], the EC50 in assay [1] was determined as 6.3 µM; in assay [2], 3.9 µM; in assay [3] (setting [4]) it was 8.9 µM.

Regarding `COC(=O)[C@H](C)NP(=O)(OC[C@H]1O[C@@H](n2cc(/C=C/Br)c(=O)[nH]c2=O)CC1O)Oc1ccccc1` (stereo partly drawn) [Example 1, (E)-5-(2-Bromovinyl)-2′-deoxyuridine-5′-[phenyl-(methoxy-L-alaninyl)]-phosphate, reference compound], the EC50 was 155 µM in assay [1]; 79 µM in assay [2]; 244 µM in assay [3] (setting [4]); 244 µM in assay [3] (read-out: EC50/μM Colon HT115, MTT assay, compounds added to cells over 1 to 3 days).

On to `CCOC(=O)C(C)(C)NP(=O)(OC[C@H]1O[C@@H](n2cc(/C=C/Br)c(=O)[nH]c2=O)CC1O)Oc1ccccc1` (stereo partly drawn) [Example 27, (E)-5-(2-bromovinyl)-2′-deoxyuridine-5′-[phenyl-(ethoxy-α,α-dimethylglycinyl)]-phosphate], for which the EC50 worked out at 76.1 µM in assay [1], 218 µM in assay [2] and 39.7 µM in assay [3] (setting [4]).

In the case of `CC(C)C[C@H](NP(=O)(OC[C@H]1O[C@@H](n2cc(/C=C/Br)c(=O)[nH]c2=O)CC1O)Oc1ccccc1)C(=O)OCc1ccccc1` (stereo partly drawn) [Example 37, (E)-5-(2-Bromovinyl)-2′-deoxyuridine-5′-[phenyl-(benzoxy-L-leucinyl)]-phosphate], the EC50 is 7.16 µM in assay [1], 2.8 µM in assay [2] and 7 µM in assay [3] (setting [4]).

`CC(C)(NP(=O)(OCC1OC(n2cc(/C=C/Br)c(=O)[nH]c2=O)CC1O)Oc1ccc(C(F)(F)F)cc1)C(=O)OCc1ccccc1` (stereo not drawn) [Example 48, (E)-5-(2-bromovinyl)-2′-deoxyuridine-5′-[para-(trifluoromethyl)phenyl-(benzoxy-α,α-dimethylglycinyl)]-phosphate]: the figures for the EC50 in assay [1], in assay [2] and in assay [3] (setting [4]) were 0.61 µM, 1.3 µM and 7 µM, respectively. In assay [1] (ratio versus methyl ester (7)), the “times more potent than (7), prostate cancer cell line PC-3” value was found to be 254 fold. Further, the “fold more active than (7), breast cancer” value in assay [2] (ratio versus methyl ester (7)) is 60 fold. Further, the “times more potent than (7), colon cancer cell line HT115” value in assay [3] (ratio of 50% growth inhibition concentrations versus methyl ester (7)) is reported as 35 fold.

`COC(=O)C1(NP(=O)(OC[C@H]2O[C@@H](n3cc(/C=C/Br)c(=O)[nH]c3=O)CC2O)Oc2ccccc2)CCCC1` (stereo partly drawn) [Example 16, (E)-5-(2-Bromovinyl)-2′-deoxyuridine-5′-[phenyl-(methoxy-α,α-cycloleucinyl)]-phosphate]: the results for the EC50 in assay [1], in assay [2] and in assay [3] (setting [4]) were 16 µM, 79 µM and 77 µM, respectively.

With `COC(=O)[C@H](C)NP(=O)(OC[C@H]1O[C@@H](n2cc(/C=C/Br)c(=O)[nH]c2=O)CC1O)Oc1ccc(Cl)cc1` (stereo partly drawn) [Example 13, (E)-5-(2-bromovinyl)-2′-deoxyuridine-5′-[4-chlorophenyl-(methoxy-L-alaninyl)]-phosphate], the EC50 was determined as 13 µM in assay [1], 61 µM in assay [2] and 70.2 µM in assay [3] (setting [4]).

In the case of `C[C@H](NP(=O)(OC[C@H]1O[C@@H](n2cc(/C=C/Br)c(=O)[nH]c2=O)CC1O)Oc1ccc(Cl)cc1)C(=O)OCc1ccccc1` (stereo partly drawn) [Example 12, (E)-5-(2-bromovinyl)-2′-deoxyuridine-5′-[4-chlorophenyl-(benzoxy-L-alaninyl)]-phosphate], the EC50 in assay [1] was 2.4 µM; in assay [2] it was 6.2 µM; in assay [3] (setting [4]), 3.4 µM.

On to `CCOC(=O)C(C)(C)NP(=O)(OC[C@H]1O[C@@H](n2cc(/C=C/Br)c(=O)[nH]c2=O)CC1O)Oc1ccc([N+](=O)[O-])cc1` (stereo partly drawn) [Example 46, (E)-5-(2-bromovinyl)-2′-deoxyuridine-5′-[4-nitrophenyl-(ethoxy-α,α-dimethylglycinyl)]-phosphate], for which the EC50 in assay [1] is 82.4 µM; in assay [2], 2 µM; in assay [3] (setting [4]), 224 µM.

In the case of `CC(C)(NP(=O)(OC[C@H]1O[C@@H](n2ccc(N)nc2=O)C(F)(F)C1O)Oc1ccc(Cl)cc1)C(=O)OCc1ccccc1` (stereo partly drawn) [Example 41, Gemcitabine-[para-chlorophenyl-(benzoxy-α,α-dimethylglycinyl)]-phosphate], the EC50 in assay [1] stood at 68.8 µM; in assay [2], 3.1 µM; in assay [3] (setting [4]), 317 µM.

For the compound `CC(C)C[C@H](NP(=O)(OC[C@H]1O[C@@H](n2cc(/C=C/Br)c(=O)[nH]c2=O)CC1O)Oc1ccc([N+](=O)[O-])cc1)C(=O)OCc1ccccc1` (stereo partly drawn) [Example 38, (E)-5-(2-Bromovinyl)-2′-deoxyuridine-5′-(para-nitrophenyl-(benzoxy-L-leucinyl)]-phosphate], the EC50 was 7.2 µM in assay [1], 6.3 µM in assay [2] and 10.7 µM in assay [3] (setting [4]).

Take `CCOC(=O)[C@H](C)NP(=O)(OC[C@H]1O[C@@H](n2cc(/C=C/Br)c(=O)[nH]c2=O)CC1O)Oc1ccc(Cl)cc1` (stereo partly drawn) [Example 11, (E)-5-(2-bromovinyl)-2′-deoxyuridine-5′-[4-chlorophenyl-(ethoxy-L-alaninyl)]-phosphate]: the EC50 in assay [1] turned out to be 3.4 µM; in assay [2] it was 28.7 µM; in assay [3] (setting [4]), 14.9 µM.

Regarding `CC(C)(NP(=O)(OC[C@H]1O[C@@H](n2cc(/C=C/Br)c(=O)[nH]c2=O)CC1O)Oc1ccc(Cl)cc1)C(=O)OCc1ccccc1` (stereo partly drawn) [Example 44, (E)-5-(2-bromovinyl)-2′-deoxyuridine-5′-[4-chlorophenyl-(benzoxy-α,α-dimethylglycinyl)]-phosphate], the EC50 in assay [1] was determined as 9.12 µM; in assay [2], 2.3 µM; in assay [3] (setting [4]), 4.5 µM.

As to `CCOC(=O)[C@H](C)NP(=O)(OC[C@H]1O[C@@H](n2cc(/C=C/Br)c(=O)[nH]c2=O)CC1O)Oc1ccc(F)cc1` (stereo partly drawn) [Example 6, (E)-5-(2-Bromovinyl)-2′-deoxyuridine-5′-[para-fluorophenyl-(ethoxy-L-alaninyl)]-phosphate], the results for the EC50 in assay [1], in assay [2] and in assay [3] (setting [4]) were 42 µM, 46 µM and 11 µM, respectively.

These data come from USRE47589E1, “Phosphoramidate compounds and methods of use” (NuCana plc, priority 2003, dated 2019).
